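96-well plates; 48 h exposure; 5 concentrations. Endpoints by linear interpolation between flanking doses. Not reached: highest tested concentration assigned. TGI marks complete inhibition of growth.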
How the values were obtained:
Assay in all cases: growth of human tumour cells (NCI), 48 h
HOP-62 NSCLC = system: HOP-62 NSCLC
NCI-H460 lung = system: NCI-H460 lung
LOX IMVI melanoma = system: LOX IMVI melanoma
SF-295 CNS = system: SF-295 CNS
MDA-N = system: MDA-N
OVCAR-8 ovarian = system: OVCAR-8 ovarian
CCRF-CEM leukemia = system: CCRF-CEM leukemia
M14 melanoma = system: M14 melanoma
UACC-62 melanoma = system: UACC-62 melanoma
HCT-15 colon = system: HCT-15 colon

Row | Compound | TGI (HOP-62 NSCLC) | TGI (NCI-H460 lung) | TGI (LOX IMVI melanoma) | TGI (SF-295 CNS) | TGI (MDA-N) | TGI (OVCAR-8 ovarian) | TGI (CCRF-CEM leukemia) | TGI (M14 melanoma) | TGI (UACC-62 melanoma) | TGI (HCT-15 colon)
1 | COc1ccc(C[C@H]2COC(=O)[C@@H]2Cc2ccccc2)cc1OC | > 100 µM | > 100 µM | > 100 µM | > 100 µM | > 100 µM | > 100 µM | > 100 µM | – | – | –
2 | Cc1sc2nc3n(sc4nc5sc(C)c(C)c5c(=O)n43)c(=O)c2c1C | – | > 100 µM | > 100 µM | > 100 µM | > 100 µM | > 100 µM | 45.1 µM | > 100 µM | 87.6 µM | > 100 µM
3 | C/C(=N\NC(=O)c1ccncc1)c1cccc(C(F)(F)F)c1 | > 10 µM | > 10 µM | > 10 µM | – | > 10 µM | > 10 µM | > 10 µM | > 10 µM | > 10 µM | > 10 µM
4 | CC(=O)OCC1(CNc2nc(N)ncc2C#N)CC(CCc2ccccc2)C1 (stereo not given) | > 100 µM | > 100 µM | > 100 µM | > 100 µM | > 100 µM | > 100 µM | > 100 µM | – | > 100 µM | > 100 µM
5 | c1ccc2c(c1)ccc1nc(-c3ccc4c(c3)OCO4)c3c(c12)CCC3 | > 100 µM | > 100 µM | – | > 100 µM | > 100 µM | > 100 µM | > 100 µM | > 100 µM | > 100 µM | > 100 µM
6 | CCOC(=O)NC(OCc1ccccc1)(C(=O)OC)C(F)(F)F (stereo not given) | – | > 100 µM | > 100 µM | > 100 µM | > 100 µM | > 100 µM | > 100 µM | > 100 µM | > 100 µM | > 100 µM
7 | Cc1ccc(C(=O)NN=C(/N=N/c2cccc(C)c2)c2ccc(N(C)C)cc2)cc1 | – | > 100 µM | > 100 µM | > 100 µM | > 100 µM | > 100 µM | > 100 µM | > 100 µM | > 100 µM | > 100 µM
8 | CCn1c(O)c(C(=O)NC(C)c2ccc([N+](=O)[O-])cc2)c(=O)n(CC)c1=S (stereo not given) | 6.54 µM | 9.36 µM | 10.9 µM | 3.7 µM | 13.6 µM | – | 11.9 µM | 6.04 µM | 5.8 µM | 10.7 µM
9 | Cc1c(Cl)c(=O)oc2cc(OCC(O)COC(C)C)ccc12 (stereo not given) | > 100 µM | > 100 µM | > 100 µM | > 100 µM | > 100 µM | > 100 µM | > 100 µM | 92.4 µM | > 100 µM | –
10 | COc1ccc(OC)c(-c2cn3c(n2)sc2ccccc23)c1 | > 100 µM | > 100 µM | > 100 µM | > 100 µM | > 100 µM | > 100 µM | > 100 µM | – | > 100 µM | > 100 µM
11 | COc1c(-c2ccc(F)cc2)oc2cc(O)cc(O)c2c1=O | 38.4 µM | 59.9 µM | 54.5 µM | 83.9 µM | 62 µM | 69.4 µM | 95.3 µM | > 100 µM | – | 38 µM
12 | COC(=O)c1c(C)cccc1C1CN=NC12Cc1cccc(C)c1C2=O (stereo not given) | > 100 µM | 45.1 µM | 32.7 µM | – | > 100 µM | > 100 µM | 71.1 µM | 25.5 µM | 74 µM | > 100 µM
13 | O=C1/C(=C/c2cccs2)N=C(c2ccccc2)N1c1nc2ccccc2s1 | > 100 µM | > 100 µM | > 100 µM | > 100 µM | > 100 µM | > 100 µM | 0.976 µM | > 100 µM | – | > 100 µM
14 | Cn1c(=O)[nH]n(-c2ccc3ccccc3c2)c1=O | – | > 100 µM | > 100 µM | > 100 µM | > 100 µM | > 100 µM | > 100 µM | > 100 µM | > 100 µM | > 100 µM
15 | CCCCCCCCCCC[N+]1(Cc2ccccc2)CC2CCN(Cc3ccccc3)CC2C1 (stereo not given) | 2.14 µM | 2.58 µM | 1.6 µM | 2.28 µM | 1.25 µM | 1.5 µM | 1.14 µM | 1.48 µM | – | 2.96 µM
16 | OCC1c2ccccc2-n2nc(-c3ccccc3)c(O)c21 (stereo not given) | > 100 µM | 77.2 µM | 47 µM | > 100 µM | > 100 µM | 37.6 µM | > 100 µM | – | 67.7 µM | 29.2 µM
17 | CC(C)(C)C(=O)O[C@H]1C=C[C@@H](O)[C@@H]2[C@H]1[C@@H]1C=C[C@H]2C1 | – | > 100 µM | > 100 µM | > 100 µM | > 100 µM | > 100 µM | > 100 µM | > 100 µM | > 100 µM | 83.5 µM
18 | Cc1cn(C2CC(SCCO)C(CO)O2)c(=O)[nH]c1=O (stereo not given) | > 100 µM | > 100 µM | – | > 100 µM | > 100 µM | > 100 µM | > 100 µM | > 100 µM | > 100 µM | > 100 µM
